Data on four molecules can be found in ChEMBL document CHEMBL1944637, “Asymmetric synthesis and cytotoxicity of (-)-saframycin A analogues” (Eur J Med Chem, 2012).

SMILES strings stand for the structures.

The test system of one experiment is HeLa. Kind of experiment: Cytotoxicity against human HeLa cells assessed as cell viability after 72 hrs by MTT assay. Format: functional, cell-based.
The next experiment has as its system A2780. Kind of experiment: Cytotoxicity against human A2780 cells assessed as cell viability after 72 hrs by MTT assay. Format: functional, cell-based. The following applies: A2780, 72 h.
The test system of the next experiment is Bel-7402. Kind of experiment: Cytotoxicity against human Bel7402 cells assessed as cell viability after 72 hrs by MTT assay. To be noted: Bel-7402, 72 h. Format: functional, cell-based. A general note: Tetrazolium assays rely on reduction of a dye to a coloured formazan, in cell work by metabolically active cells.
The subject of a further experiment is KB. In words: Cytotoxicity against human KB cells assessed as cell viability after 72 hrs by MTT assay. The format is functional, cell-based.
Experiment [1] relates to A549. Kind of experiment: Ratio of Saframycin A IC50 to compound IC50 for human A549 cells. Format: functional.
Experiment [2] is described as follows: Cytotoxicity against human HELF cells assessed as cell viability after 72 hrs by MTT assay. Format: functional, cell-based.
The test system of experiment [3] is A549. Kind of experiment: Cytotoxicity against human A549 cells assessed as cell viability after 72 hrs by MTT assay. Format: functional, cell-based. The following applies: A549, 72 h.
A short description of experiment [4]: Cytotoxicity against human BGC803 cells assessed as cell viability after 72 hrs by MTT assay. The following applies: BGC803, 72 h. The format is functional, cell-based.
Another experiment deals with KETR3. In words: Cytotoxicity against human Ketr3 cells assessed as cell viability after 72 hrs by MTT assay. Format: functional, cell-based. To be noted: KETR3, 72 h.
The test system of the next experiment is HCT-8. In words: Cytotoxicity against human HCT8 cells assessed as cell viability after 72 hrs by MTT assay. Format: functional, cell-based. The following applies: HCT-8, 72 h.
In the next experiment the test system is MCF7. In words: Cytotoxicity against human MCF7 cells assessed as cell viability after 72 hrs by MTT assay. Format: functional, cell-based. The following applies: MCF7, 72 h.

For `COC1=C(C)C(=O)C2=C(C1=O)[C@@H]1[C@@H]3CC4=C(C(=O)C(OC)=C(C)C4=O)[C@H](CNC(=O)c4cnccn4)N3[C@@H](C#N)[C@H](C2)N1C`, the IC50 (in general, the concentration that inhibits the measured activity by half) is 1.89 nM with HeLa; 7.17 nM with A2780; 1.87 nM with Bel-7402; 1.85 nM with KB; 1.53 nM in experiment [2]; 1.89 nM in the experiment on A549 [3]. Besides, the IC50 in [4] worked out at 12.1 nM; in the experiment on KETR3, 1.61 nM; in the experiment with HCT-8, 10.5 nM; with MCF7, 3.06 nM. In addition, the “Ratio IC50” value with A549 [1] is recorded as 20.
With `COC1=C(C)C(=O)C2=C(C1=O)[C@@H]1[C@@H]3CC4=C(C(=O)C(OC)=C(C)C4=O)[C@H](CNC(=O)c4cc(OC)c(OC)c(OC)c4)N3[C@@H](C#N)[C@H](C2)N1C`, the IC50 in the experiment on HeLa amounted to 2.52 nM; in the experiment on A2780 it was 3.67 nM; in the experiment with Bel-7402, 3.03 nM; in the experiment on KB, 1.27 nM; in experiment [2] it was 3.38 nM; with A549 [3], 18.8 nM. Besides, the concentration for half-maximal inhibition (IC50) in experiment [4] turned out to be 4.19 nM; in the experiment with KETR3, 3.63 nM; in the experiment on HCT-8, 14.9 nM; with MCF7, 1.13 nM.
For `COC1=C(C)C(=O)C2=C(C1=O)[C@@H]1[C@@H]3CC4=C(C(=O)C(OC)=C(C)C4=O)[C@H](CNC(=O)C(C)=O)N3[C@@H](C#N)[C@H](C2)N1C` [SAFRAMYCIN A], the IC50 stood at 1.06 nM in the experiment with HeLa; 2.75 nM in the experiment on A2780; 1.83 nM in the experiment on Bel-7402; 2.23 nM with KB; 2.54 nM in experiment [2]; 40.4 nM in the experiment on A549 [3]. Moreover, the IC50 in [4] came out at 11 nM; in the experiment with KETR3 it was 9.56 nM; in the experiment with HCT-8, 2.49 nM; in the experiment on MCF7 it was 6.39 nM.
With `COC1=C(C)C(=O)C2=C(C1=O)[C@@H]1[C@@H]3CC4=C(C(=O)C(OC)=C(C)C4=O)[C@H](CNC(=O)c4ccccn4)N3[C@@H](C#N)[C@H](C2)N1C`, the IC50 was determined as 7.27 nM with HeLa; 11.9 nM in the experiment on A2780; 3.8 nM with Bel-7402; 9.17 nM in the experiment on KB; 6.57 nM in experiment [2]; 30 nM in the experiment with A549 [3]. The IC50 in experiment [4] is 32.1 nM; in the experiment on KETR3 it was 15.1 nM; in the experiment with HCT-8, 22.1 nM; in the experiment with MCF7, 15.6 nM.
